Measured values from patent US6528618B1, “Anti-inflammatory peptides derived from C-reactive protein” (Yeda Research and Development Co. Ltd., priority 1997, dated 2003).
Entries after “also recorded” stand apart in the source; their conditions may differ. Where a SMILES comes first, the peptide text is derived from it.

T1: human leukocyte elastase (hLE) (Homo sapiens, UniProt P08246)
T1 construct: Neutrophils (1.4 billion) were isolated from whole blood obtained from a single healthy laboratory donor; from tissue; host or cells: neutrophils from whole blood of a single healthy donor
T1 sequence (P08246 30-247 limits assumed): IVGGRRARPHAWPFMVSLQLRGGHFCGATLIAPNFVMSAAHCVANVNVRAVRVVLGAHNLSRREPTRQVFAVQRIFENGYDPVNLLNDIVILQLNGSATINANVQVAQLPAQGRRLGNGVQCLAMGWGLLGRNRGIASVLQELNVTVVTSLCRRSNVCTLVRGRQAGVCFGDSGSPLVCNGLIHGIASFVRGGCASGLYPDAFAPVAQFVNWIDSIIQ

T2: human leukocyte cathepsin G (hCG) (Homo sapiens, UniProt P08311)
T2 construct: Neutrophils (1.4 billion) were isolated from whole blood obtained from a single healthy laboratory donor; from tissue; host or cells: neutrophils from whole blood of a single healthy donor
T2 sequence (P08311 21-243 limits assumed): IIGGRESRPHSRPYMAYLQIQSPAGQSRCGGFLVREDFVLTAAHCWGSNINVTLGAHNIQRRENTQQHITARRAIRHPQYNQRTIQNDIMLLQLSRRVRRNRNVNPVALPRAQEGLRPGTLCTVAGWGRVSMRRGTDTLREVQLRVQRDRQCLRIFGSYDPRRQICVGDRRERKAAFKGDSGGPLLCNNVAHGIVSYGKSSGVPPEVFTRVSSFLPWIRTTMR

T3: human leukocyte elastase (human, UniProt P08246 30-267)
T3 construct: mature; Active enzyme purified from human neutrophils; also called hLE
T3 sequence (looked up): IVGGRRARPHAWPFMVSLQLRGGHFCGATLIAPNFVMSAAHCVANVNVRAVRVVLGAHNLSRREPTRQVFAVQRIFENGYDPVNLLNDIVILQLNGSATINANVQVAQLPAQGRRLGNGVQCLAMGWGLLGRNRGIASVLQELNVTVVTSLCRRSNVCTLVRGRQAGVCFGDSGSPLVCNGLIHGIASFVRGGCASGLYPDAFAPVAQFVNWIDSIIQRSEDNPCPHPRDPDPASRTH

T4: human leukocyte cathepsin G (human, UniProt P08311 21-244)
T4 construct: mature; Active enzyme purified from human neutrophils; also called hCG; human Cathepsin G
T4 sequence (looked up): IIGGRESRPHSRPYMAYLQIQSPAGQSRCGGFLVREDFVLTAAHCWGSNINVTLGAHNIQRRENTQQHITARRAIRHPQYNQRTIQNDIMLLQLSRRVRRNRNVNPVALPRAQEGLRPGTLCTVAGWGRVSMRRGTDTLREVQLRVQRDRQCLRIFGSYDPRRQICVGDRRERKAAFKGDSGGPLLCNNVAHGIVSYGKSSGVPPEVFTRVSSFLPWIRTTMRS


Tests used:
[1] = molecular target: T1, human leukocyte elastase (hLE); assay: In vitro inhibition of hLE (cleavage of MeOSuc-AAPV-NA); type: biochemical; conditions: for Ki: hLE Ki [μM], Table 2, substrate MeOSuc-AAPV-NA 200 μM, pH 7.4, 37 C
Protocol: (§1) The enzymatic activity was assayed with MeOSuc-AAPV-NA for hLE determination and Suc-AAPF-NA for hCG determination (both in 100 mM Hepes buffer, pH 7.4, containing 0.05% of the […] detergent Brij-35). The activities of the individual enzymatic fractions were 100% free from cross-contamination. […] The fractions containing hLE and hCG were dialyzed each against 0.1% pyridinium acetate, pH 5.3, divided into 20 aliquots, lyophilized, and stored at −20 ° C. until use.
(v) Inhibition experiments with hLE: Peptides were dissolved in 100 mM Hepes buffer pH 7.4 containing 0.1% Brij-35 with 10%. DMSO to yield 300 μM solutions, which were used to make further dilutions with the same buffer, and 80 μL aliquots were added in duplicates to 96-well plates. The substrate, 600 μM MeOSuc-AAPV-NA in the same buffer with 5% DMSO, was added to each well in addition to the blank wells, and the plate was placed in the plate reader equilibrated to 37 C (Dynateck MR-6000). Lyophilized aliquots of hLE were dissolved in 1600 μL of 100 mM Hepes buffer without DMSO, and 80 μL of the enzyme solution was added to the peptides and substrate to initiate the reaction. […] The final volume was 240 μL containing: 5% DMSO, 1-100 μM of peptide, 200 μM substrate, and 0.75 μg (˜25 picomol) enzyme.
(viii) Calculations: For hLE, V is determined by fitting a linear equation to the first 6 time-points (10 min) of the kinetics data using the least squares method. […] Several inhibitor concentration in duplicates and two control wells were used to fit a linear equation to graphs of Vo/Vi−1 vs. [I] for each inhibitor using the least squares method (8 data points for each inhibitor). From calculating the error in the slope of the equation, the relative error for Ki was deduced:
Ki={slope*(1+[S]/Km)}^−1because Ki=[I]*{(1+[S]/Km)*(Vo/Vi−1)}^−1.
(§2) The hLE inhibitory capability of CRP-derived peptides was evaluated by inhibiting the enzymatic cleavage of MeOSuc-AAPV-NA as described in Materials and Methods (section v).

[2] = molecular target: T2, human leukocyte cathepsin G (hCG); assay: In vitro inhibition of hCG (cleavage of Suc-AAPF-NA); type: biochemical; conditions: for Ki: hCG Ki [μM], Table 2, substrate Suc-AAPF-NA 600 μM, pH 7.4
Protocol: as §1
(§3) vi) Inhibition experiments with hCG: Similar conditions to hLE inhibition experiments were used except the substrate: 80 μL of 1.80 mM Suc-AAPF-NA. The enzyme was dissolved in 800 μL buffer, and the reaction was monitored every 6 min for 1 hour. The final volume was 240 μL containing: 5% DMSO, 1-100 μM peptide, 600 μM substrate, and 1.2 μg enzyme (about 40 picomol).
For hCG, V is determined by fitting a quadratic equation to the total kinetic data (60 min), using the least squares method and calculating V at t=0.
The hCG inhibitory capability of CRP-derived peptides was evaluated by inhibiting the enzymatic cleavage of Suc-AAPF-NA as described in Materials and Methods (section vi).

[3] = molecular target: T3, human leukocyte elastase; assay: hLE enzyme inhibition kinetics, cleavage of MeOSuc-AAPV-NA
Protocol: (§4) (v) Inhibition experiments with hLE: Peptides were dissolved in 100 mM Hepes buffer pH 7.4 containing 0.1% Brij-35 with 10%. DMSO to yield 300 µM solutions, which were used to make further dilutions with the same buffer, and 80 µL aliquots were added in duplicates to 96-well plates. The substrate, 600 µM MeOSuc-AAPV-NA in the same buffer with 5% DMSO, was added to each well in addition to the blank wells, and the plate was placed in the plate reader equilibrated to 37 C (Dynateck MR-6000). Lyophilized aliquots of hLE were dissolved in 1600 µL of 100 mM Hepes buffer without DMSO, and 80 µL of the enzyme solution was added to the peptides and substrate to initiate the reaction. The kinetics program read the plate at 405 nm every 2 min for 20 min (with a 3 sec shaking period between readings), and plotted the results as well as the average of each duplicate. The final volume was 240 µL containing: 5% DMSO, 1–100 µM of peptide, 200 µM substrate, and 0.75 µg (~25 picomol) enzyme.
as §2

[4] = molecular target: T3, human leukocyte elastase; assay: as above; remark: listed apart in the source
Protocol: as §4, §2

[5] = molecular target: T4, human leukocyte cathepsin G; assay: hCG enzyme inhibition kinetics, cleavage of Suc-AAPF-NA
Protocol: as §4
as §3, with “µL” for “μL”, “1–100 µM” for “1-100 μM”, “µM” for “μM”, “µg” for “μg”

| Molecule | hLE inhibitory activity (in words) [1] | Ki [2] | Ki [1] | Ki [4] | further results |
| --- | --- | --- | --- | --- | --- |
| CC[C@H](C)[C@H](NC(=O)[C@H](CC(=O)O)NC(=O)[C@H](CCCCN)NC(=O)[C@H](CO)NC(=O)[C@H](Cc1c[nH]c2ccccc12)NC(=O)[C@H](Cc1ccccc1)NC(=O)[C@@H](NC(=O)[C@H](CC(C)C)NC(=O)[C@@H](NC(=O)[C@H](CCC(=O)O)NC(=O)[C@H](CC(N)=O)NC(=O)[C@H](CC(=O)O)NC(=O)[C@H](CCC(N)=O)NC(=O)[C@H](CCCNC(=N)N)NC(=O)[C@H](CCCCN)NC(=O)[C@@H](NC(=O)[C@H](C)N)[C@@H](C)O)[C@@H](C)CC)[C@@H](C)CC)C(=O)NCC(=O)N[C@@H](Cc1ccc(O)cc1)C(=O)N[C@@H](CO)C(=O)N[C@@H](Cc1ccccc1)C(=O)N[C@H](C(=O)N[C@H](C(=O)NCC(=O)NCC(=O)N[C@@H](CO)C(=O)N[C@@H](CCC(=O)O)C(=O)N[C@H](C(=O)N[C@@H](CC(C)C)C(=O)O)[C@@H](C)CC)C(C)C)[C@@H](C)O [Peptide 17] (H-ATKRQDNEILIFWSKDIGYSFTVGGSEIL-OH; N-terminus and C-terminus assumed) | reduced inhibitory activity; also recorded: reduction of inhibitory activity | 5.5 ± 1 µM |  |  | hCG inhibitory activity (in words) [2]: reduction of inhibitory activity |
| CC[C@H](C)[C@H](NC(=O)[C@H](CC(=O)O)NC(=O)[C@H](CCCN)NC(=O)[C@H](CO)NC(=O)[C@H](Cc1c[nH]c2ccccc12)NC(=O)[C@H](Cc1ccccc1)NC(=O)[C@@H](NC(=O)[C@H](CC(C)C)NC(=O)[C@@H](NC(=O)[C@@H](N)CCC(=O)O)[C@@H](C)CC)[C@@H](C)CC)C(=O)NCC(=O)N[C@@H](Cc1ccc(O)cc1)C(=O)N[C@@H](CO)C(=O)N[C@@H](Cc1ccccc1)C(=O)N[C@H](C(=O)O)[C@@H](C)O [Peptide 20, Glu-Ile-Leu-Ile-Phe-Trp-Ser-Orn-Asp-Ile-Gly-Tyr-Ser-Phe-Thr] (HELM PEPTIDE1{E.I.L.I.F.W.S.[Orn].D.I.G.Y.S.F.T}$$$$V2.0; N-terminus and C-terminus assumed) | retained the same level of inhibitory activity as peptide 6 | 0.25 ± 0.05 µM | 0.25 ± 0.1 µM |  |  |
| CC[C@H](C)[C@H](NC(=O)[C@H](CC(=O)O)NC(=O)[C@H](CCN)NC(=O)[C@H](CO)NC(=O)[C@H](Cc1c[nH]c2ccccc12)NC(=O)[C@H](Cc1ccccc1)NC(=O)[C@@H](NC(=O)[C@H](CC(C)C)NC(=O)[C@@H](NC(=O)[C@@H](N)CCC(=O)O)[C@@H](C)CC)[C@@H](C)CC)C(=O)NCC(=O)N[C@@H](Cc1ccc(O)cc1)C(=O)N[C@@H](CO)C(=O)N[C@@H](Cc1ccccc1)C(=O)N[C@H](C(=O)O)[C@@H](C)O [Peptide 21, Glu-Ile-Leu-Ile-Phe-Trp-Ser-DAB-Asp-Ile-Gly-Tyr-Ser-Phe-Thr] (HELM PEPTIDE1{E.I.L.I.F.W.S.[Dab].D.I.G.Y.S.F.T}$$$$V2.0; N-terminus and C-terminus assumed) | retained the same level of inhibitory activity as peptide 6 | 0.85 ± 0.35 µM | 0.2 ± 0.05 µM |  |  |
| CC[C@H](C)[C@H](NC(=O)[C@H](C)NC(=O)[C@H](CCCCN)NC(=O)[C@H](CO)NC(=O)[C@H](Cc1c[nH]c2ccccc12)NC(=O)[C@H](Cc1ccccc1)NC(=O)[C@@H](NC(=O)[C@H](CC(C)C)NC(=O)[C@@H](NC(=O)[C@@H](N)CCC(=O)O)[C@@H](C)CC)[C@@H](C)CC)C(=O)NCC(=O)N[C@@H](Cc1ccc(O)cc1)C(=O)N[C@@H](CO)C(=O)N[C@@H](Cc1ccccc1)C(=O)N[C@H](C(=O)O)[C@@H](C)O [Peptide 22, Glu-Ile-Leu-Ile-Phe-Trp-Ser-Lys-Ala-Ile-Gly-Tyr-Ser-Phe-Thr] (H-EILIFWSKAIGYSFT-OH; N-terminus and C-terminus assumed) | large decrease in inhibition capacity | 5.5 ± 1.5 µM | 3 ± 0.6 µM |  |  |
| CC[C@H](C)[C@H](NC(=O)[C@H](CCC(=O)O)NC(=O)[C@H](CCCCN)NC(=O)[C@H](CO)NC(=O)[C@H](Cc1c[nH]c2ccccc12)NC(=O)[C@H](Cc1ccccc1)NC(=O)[C@@H](NC(=O)[C@H](CC(C)C)NC(=O)[C@@H](NC(=O)[C@@H](N)CCC(=O)O)[C@@H](C)CC)[C@@H](C)CC)C(=O)NCC(=O)N[C@@H](Cc1ccc(O)cc1)C(=O)N[C@@H](CO)C(=O)N[C@@H](Cc1ccccc1)C(=O)N[C@H](C(=O)O)[C@@H](C)O [Peptide 23, Glu-Ile-Leu-Ile-Phe-Trp-Ser-Lys-Glu-Ile-Gly-Tyr-Ser-Phe-Thr] (H-EILIFWSKEIGYSFT-OH; N-terminus and C-terminus assumed) | small decrease in inhibitory activity | 0.85 ± 0.25 µM |  |  |  |
| TFSYGIDKSWFILIE [peptide 24 (reverse sequence of peptide 6)] |  |  |  | 10000 nM | fold less active against peptide 6 [3]: 30 fold |
| ATKRQDNEILIFWSKDIGYSFTVGGSEIL (Synthetic 29-mer) [peptide 17 (CRP55-83)] |  |  |  | 7300 nM |  |
| EILIFWPKDIGYSFT (Analog of peptide 6 (CRP62-76) with Ser68 replaced by Pro) [peptide 19] |  |  |  |  | Ki [5]: 30000 nM |
| EILIFWSKEIGYSFT (Analog of peptide 6 (CRP62-76) with Asp70 replaced by Glu; also called pep23) [peptide 23] |  |  |  | 550 nM |  |
| EILIFWSVDI (10-mer analog of peptide 14 (CRP62-71) with Lys69 replaced by Val; also called pep26) [peptide 26] |  |  |  | 2000 nM |  |
